The subject of this assay is HCV replicon (Huh-Luc cells, NS3-NS5B regions of HCV type 1b). Kind of assay: HCV replicon assay (Huh-7 luc/neo, luciferase readout). Type of assay: cell-based. The note with it: average if tested more than once. The text has this:
The in vitro antiviral activity against HCV of the compounds of formula I can be tested in a cellular HCV replicon system based on Lohmann et al. (1999) Science 285:110-113, with the further modifications described by Krieger et al. (2001) Journal of Virology 75: 4614-4624 (incorporated herein by reference), which is further exemplified in the examples section. This model, while not a complete infection model for HCV, is widely accepted as the most robust and efficient model of autonomous HCV RNA replication currently available. It will be appreciated that it is important to distinguish between compounds that specifically interfere with HCV functions from those that exert cytotoxic or cytostatic effects in the HCV replicon model, and as a consequence cause a decrease in HCV RNA or linked reporter enzyme concentration. Assays are known in the field for the evaluation of cellular cytotoxicity based for example on the activity of mitochondrial enzymes using fluorogenic redox dyes such as resazurin. Furthermore, cellular counter screens exist for the evaluation of non-selective inhibition of linked reporter gene activity, such as firefly luciferase. Appropriate cell types can be equipped by stable transfection with a luciferase reporter gene whose expression is dependent on a constitutively active gene promoter, and such cells can be used as a counter-screen to eliminate non-selective inhibitors.
The compounds of formula (I) were examined for inhibitory activity in the HCV replicon. This cellular assay is based on a bicistronic expression construct, as described by Lohmann et al. (1999) Science vol. 285 pp. 110-113 with modifications described by Krieger et al. (2001) Journal of Virology 75: 4614-4624, in a multi-target screening strategy.
The assay utilized the stably transfected cell line Huh-7 luc/neo (hereafter referred to as Huh-Luc). This cell line harbors an RNA encoding a bicistronic expression construct comprising the wild type NS3-NS5B regions of HCV type 1b translated from an
Internal Ribosome Entry Site (IRES) from encephalomyocarditis virus (EMCV), preceded by a reporter portion (FfL-luciferase), and a selectable marker portion (neo^R, neomycine phosphotransferase). The construct is flanked by 5′ and 3′ NTRs (non-translated regions) from HCV type 1b. Continued culture of the replicon cells in the presence of G418 (neo^R) is dependent on the replication of the HCV RNA. The stably transfected replicon cells that express HCV RNA, which replicates autonomously and to high levels, encoding inter alia luciferase, were used for screening the antiviral compounds.
The replicon cells were plated in 384 well plates in the presence of the test and control compounds which were added in various concentrations. Following an incubation of three days, HCV replication was measured by assaying luciferase activity (using standard luciferase assay substrates and reagents and a Perkin Elmer ViewLux™ ultraHTS microplate imager). Replicon cells in the control cultures have high luciferase expression in the absence of any inhibitor. The inhibitory activity of the compound on luciferase activity was monitored on the Huh-Luc cells, enabling a dose-response curve for each test compound. EC50 values were then calculated, which represent the amount of compound required to decrease the level of detected luciferase activity by 50%, or more specifically, to reduce the ability of the genetically linked HCV replicon RNA to replicate.
Where a compound of formula (I) was tested more than once in the replicon assay, the average of all test results is given in this Table 1.
In general terms: Replicon systems follow genome replication, usually without infectious particles.

Where [1] appears, read: Huh-Luc replicon cells, three days incubation, luciferase activity, read-out: HCV-REP-HUH7LUC_EC50.
Setting [2] is: Hepatitis C virus, Huh-7, 72 h, Huh-Luc replicon cells, three days incubation, luciferase activity, read-out: HCV-REP-HUH7LUC_EC50.

Where two headings read alike, the source gives them in different places.

`COC(=O)N[C@H](C(=O)N1CCCC1c1cc(=O)c2cc(-c3ccc4cc(-c5cnc([C@@H]6CCCN6C(=O)[C@@H](NC(=O)OC)C(C)C)[nH]5)ccc4c3)ccc2[nH]1)C(C)C` (single isomer, unassigned) [Compound 22a]: the EC50 under setting [1] turned out to be 3.4 nM. The same measure, in the same setting: the figure for `COC(=O)N[C@H](C(=O)N1CCCC1c1cc(=O)c2cc(-c3ccc4cc(-c5cnc([C@@H]6CCCN6C(=O)[C@@H](NC(=O)OC)C(C)C)[nH]5)ccc4c3)ccc2[nH]1)C(C)C` (single isomer, unassigned) [Compound 22b] is 0.052 nM; for `CC[C@H](C)[C@H](NC(=O)OC)C(=O)N1CCCC1c1cc(=O)c2cc(-c3ccc4cc(-c5cnc([C@@H]6CCCN6C(=O)[C@@H](NC(=O)OC)[C@@H](C)CC)[nH]5)ccc4c3)ccc2[nH]1` (single isomer, unassigned) [Compound 24a] it is 9.6 nM. On the same count and under the same terms, with `COC(=O)N[C@H](C(=O)N1CCCC1c1[nH]c2cc(-c3ccc4cc(-c5cnc([C@@H]6CCCN6C(=O)[C@@H](NC(=O)OC)C(C)C)[nH]5)ccc4c3)ccc2c(=O)c1Cl)C(C)C` (single isomer, unassigned) [Compound 106a] the figure was 0.12 nM.

In the case of `COC(=O)N[C@H](C(=O)N1CCCC1c1[nH]c2cc(-c3ccc4cc(-c5cnc([C@@H]6CCCN6C(=O)[C@@H](NC(=O)OC)C(C)C)[nH]5)ccc4c3)ccc2c(=O)c1Cl)C(C)C` (single isomer, unassigned) [Compound 106b], the EC50 under setting [1] came to 20.6 nM. `COC(=O)N[C@H](C(=O)N1CCC[C@H]1c1ncc(-c2ccc3cc(-c4ccc5c(=O)cc(C6CCCN6C(=O)[C@@H](NC(=O)OC)[C@@H](C)OC)[nH]c5c4)ccc3c2)[nH]1)C(C)C` (stereo partly shown) [Compound 13-A1]: the EC50 under setting [2] is 0.1 nM. In the case of `CC[C@H](NC(=O)OC)C(=O)N1CCCC1c1cc(=O)c2ccc(-c3ccc4cc(-c5cnc([C@@H]6CCCN6C(=O)[C@@H](NC(=O)OC)C(C)C)[nH]5)ccc4c3)cc2[nH]1` (stereo partly shown) [Compound 13-A2], the EC50 under setting [2] amounted to 0.079 nM. Still for that read-out and setting: the figure for `COC(=O)NC(C(=O)N1CCCC1c1cc(=O)c2ccc(-c3ccc4cc(-c5cnc([C@@H]6CCCN6C(=O)[C@@H](NC(=O)OC)C(C)C)[nH]5)ccc4c3)cc2[nH]1)C1CCOCC1` (stereo partly shown) [Compound 13-A4] is 1.2 nM; for `CC[C@@H](C)[C@H](NC(=O)OC)C(=O)N1CCCC1c1cc(=O)c2ccc(-c3ccc4cc(-c5cnc([C@@H]6CCCN6C(=O)[C@@H](NC(=O)OC)C(C)C)[nH]5)ccc4c3)cc2[nH]1` (stereo partly shown) [Compound 13-A5] it is 0.062 nM; for `COCC[C@H](NC(=O)OC)C(=O)N1CCCC1c1cc(=O)c2ccc(-c3ccc4cc(-c5cnc([C@@H]6CCCN6C(=O)[C@@H](NC(=O)OC)C(C)C)[nH]5)ccc4c3)cc2[nH]1` (stereo partly shown) [Compound 13-A6] it is 0.5 nM.

Regarding `COC[C@H](NC(=O)OC(C)(C)C)C(=O)N1CCCC1c1cc(=O)c2ccc(-c3ccc4cc(-c5cnc([C@@H]6CCCN6C(=O)[C@@H](NC(=O)OC)C(C)C)[nH]5)ccc4c3)cc2[nH]1` (stereo partly shown) [Compound 13-A7], the EC50 under setting [2] amounted to 0.053 nM. Still for that read-out and setting: with `COC[C@H](NC(=O)OC)C(=O)N1CCCC1c1cc(=O)c2ccc(-c3ccc4cc(-c5cnc([C@@H]6CCCN6C(=O)[C@@H](NC(=O)OC)C(C)C)[nH]5)ccc4c3)cc2[nH]1` (stereo partly shown) [Compound 13-A8] the figure was 0.18 nM. For `COC(=O)N[C@H](C(=O)N1CCCC1c1cc(=O)c2ccc(-c3ccc4cc(-c5cnc([C@@H]6CCCN6C(=O)[C@@H](NC(=O)OC)C(C)C)[nH]5)ccc4c3)cc2[nH]1)C(C)C` (stereo partly shown) [Compound 13], the EC50 under setting [1] worked out at 0.028 nM. In the case of `COC(=O)N[C@H](C(=O)N1CCCC1c1cc(=O)c2ccc(-c3ccc4cc(-c5cnc([C@@H]6CCCN6C(=O)[C@@H](NC(=O)OC)C(C)C)[nH]5)ccc4c3)cc2[nH]1)C(C)C` (stereo partly shown) [Compound 13a], the EC50 under setting [1] is 0.91 nM. Take `COC(=O)N[C@H](C(=O)N1CCCC1c1cc2ccc(-c3ccc4cc(-c5cnc([C@@H]6CCCN6C(=O)[C@@H](NC(=O)OC)[C@@H](C)OC)[nH]5)ccc4c3)cc2c(=O)[nH]1)[C@@H](C)OC` (stereo partly shown) [Compound 20-A]: the EC50 (Hepatitis C virus, Huh-7, 72 h, read-out: HCV-REP-HUH7LUC_EC50 (nM), Huh-Luc replicon cells, three days incubation, luciferase activity) was 0.2 nM. Regarding `COC(=O)N[C@H](C(=O)N1CCCC1c1cc2ccc(-c3ccc4cc(-c5cnc([C@@H]6CCCN6C(=O)[C@@H](NC(=O)OC)C(C)C)[nH]5)ccc4c3)cc2c(=O)[nH]1)C(C)C` (stereo partly shown) [Compound 20], the EC50 under setting [2] amounted to 0.79 nM. On to `COC(=O)N[C@H](C(=O)N1CCCC1c1cc(=O)c2cc(-c3ccc4cc(-c5cnc([C@@H]6CCCN6C(=O)[C@@H](NC(=O)OC)C(C)C)[nH]5)ccc4c3)ccc2[nH]1)C(C)C` (stereo partly shown) [Compound 22], for which the EC50 under setting [1] is 0.075 nM. On to `COC(=O)N[C@H](C(=O)N1CCCC1c1cc(=O)c2cc(-c3ccc4cc(-c5cnc([C@@H]6CCCN6C(=O)[C@@H](NC(=O)OC)[C@@H](C)OC)[nH]5)ccc4c3)ccc2[nH]1)[C@@H](C)OC` (stereo partly shown) [Compound 23], for which, under setting [2], the EC50 was 0.47 nM. Turning to `COC(=O)N[C@H](C(=O)N1CCCC1c1cc(=O)c2cc(-c3ccc4cc(-c5cnc([C@@H]6CCCN6C(=O)[C@@H](NC(=O)OC)[C@@H](C)OC)[nH]5)ccc4c3)ccc2[nH]1)[C@@H](C)OC` (stereo partly shown) [Compound 23b], under setting [1], the EC50 came to 0.34 nM. On the same count and under the same terms, the figure for `CC[C@H](C)[C@H](NC(=O)OC)C(=O)N1CCCC1c1cc(=O)c2cc(-c3ccc4cc(-c5cnc([C@@H]6CCCN6C(=O)[C@@H](NC(=O)OC)[C@@H](C)CC)[nH]5)ccc4c3)ccc2[nH]1` (stereo partly shown) [Compound 24] is 0.048 nM. Take `COC(=O)N[C@H](C(=O)N1CCC[C@H]1c1ncc(-c2ccc3cc(-c4ccc5c(=O)[nH]c([C@@H]6CCCN6C(=O)[C@H](NC(=O)OC6CCCC6)c6ccccc6)nc5c4)ccc3c2)[nH]1)C(C)C` [Compound 44-3]: the EC50 under setting [2] was 1 nM. As to `COC(=O)N[C@H](C(=O)N1CCC[C@H]1c1ncc(-c2ccc3cc(-c4ccc5c(=O)[nH]c([C@@H]6CCCN6C(=O)[C@H](NC(=O)OC6CCC6)c6ccccc6)nc5c4)ccc3c2)[nH]1)C(C)C` [Compound 44-4], the EC50 under setting [2] was found to be 9.8 nM.

On to `COC(=O)N[C@H](C(=O)N1CCCC1c1cc(=O)c2ncc(-c3ccc4cc(-c5cnc([C@@H]6CCCN6C(=O)[C@@H](NC(=O)OC)C(C)C)[nH]5)ccc4c3)cc2[nH]1)C(C)C` (stereo partly shown) [Compound 97], for which the EC50 under setting [2] was found to be 0.24 nM. Same read-out and setting: the figure for `COC(=O)N[C@H](C(=O)N1CCCC1c1[nH]c2cc(-c3ccc4cc(-c5cnc([C@@H]6CCCN6C(=O)[C@@H](NC(=O)OC)C(C)C)[nH]5)ccc4c3)ccc2c(=O)c1C)C(C)C` (stereo partly shown) [Compound 102b] is 20.6 nM; for `COC(=O)N[C@H](C(=O)N1CCC[C@H]1c1ncc(-c2ccc3cc(-c4ccc5c(=O)cc(C6C[C@@H]7CCCC[C@@H]7N6C(=O)[C@@H](NC(=O)OC)C(C)C)[nH]c5c4)ccc3c2)[nH]1)C(C)C` (stereo partly shown) [Compound 119a] it is 0.033 nM.

These data come from US8815849B2, “Hetero-bicyclic derivatives as HCV inhibitors” (Janssen R&D Ireland, priority 2010, dated 2014).
